{
  "source": "patent US6825185B2",
  "about": "“Substituted aryl compounds as novel cyclooxygenase-2 selective inhibitors, compositions and methods of use” (NitroMed, Inc., priority 2000, dated 2004)",
  "key": {"[1]": {"molecular_target": "COX-1 (Homo sapiens, UniProt P23219)", "sequence (P23219 24-599)": "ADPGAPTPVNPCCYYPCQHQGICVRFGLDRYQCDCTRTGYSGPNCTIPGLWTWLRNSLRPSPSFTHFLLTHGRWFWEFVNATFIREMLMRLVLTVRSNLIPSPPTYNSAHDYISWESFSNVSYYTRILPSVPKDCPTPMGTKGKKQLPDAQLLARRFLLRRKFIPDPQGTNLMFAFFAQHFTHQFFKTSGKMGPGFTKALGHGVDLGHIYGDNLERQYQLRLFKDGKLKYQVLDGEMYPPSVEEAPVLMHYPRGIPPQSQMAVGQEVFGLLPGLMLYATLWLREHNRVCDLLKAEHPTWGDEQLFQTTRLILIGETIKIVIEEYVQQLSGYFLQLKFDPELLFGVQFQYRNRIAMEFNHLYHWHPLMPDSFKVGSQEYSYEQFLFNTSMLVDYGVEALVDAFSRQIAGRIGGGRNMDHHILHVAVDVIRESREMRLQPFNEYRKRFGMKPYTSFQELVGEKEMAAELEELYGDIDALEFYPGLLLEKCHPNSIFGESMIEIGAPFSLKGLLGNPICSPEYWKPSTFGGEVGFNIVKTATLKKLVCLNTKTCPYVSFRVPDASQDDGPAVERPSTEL", "experiment": "Human COX-1 enzyme activity (COX Inhibitor Screening Assay, prostaglandin EIA)", "format": "biochemical", "parameters": "purchased Cayman Chemical", "conditions": "test compound at 100 μM", "experimental": "The human COX-1 and COX-2 enzyme activities and the measurement of the prostaglandin products synthesized were performed using the COX Inhibitor Screening Assay (Cayman Chemical, Ann Arbor, Mich.), which also contained the Prostaglandin Screening EIA Kit, used for prostaglandin quantification). The test compounds were dissolved at 50 times the highest final reaction concentration in DMSO or any other suitable solvent as stock solutions. These stock solutions were then diluted in the same solvent. Eight glass test tubes (13×100 mm) were placed in a 25° C. water bath. To each test tube was added 950 μL of reaction buffer (0.1 M Tris-HCl, pH 8.0, containing 5 mM EDTA, and 2 mM phenol), 10 μL of 100 µM heme solution, and 10 μL (5 units) of either human COX-1 or COX-2 enzyme and the resulting mixture was incubated for 2 minutes. Twenty μL of the solvent was added to one tube (100% initial activity or solvent control) and 20 μL of each dilution of the test compound was added to one tube each. Each tube was vortexed immediately after the addition. The enzyme was incubated with the inhibitor for 20 minutes at 25° C. The enzymatic reaction was then initiated by the addition of 10 μL of freshly prepared 10 mM arachidonic acid (neutralized with KOH), vortexed and then incubated for 2 minutes (or, in some cases as indicated, 30 seconds) at 37° C. The reaction was terminated by the addition of 50 μL of 1 M HCl, vortexed and placed at room temperature. One hundred μL of a saturated stannous chloride solution (50 mg/mL of 0.1 M HCl) was added and the reaction mixture was allowed to stand at room temperature for at least 5 minutes.\nThe prostaglandins (PG) produced in the reactions were assayed, after a 2,000-fold dilution, using the Prostaglandin Screening EIA Kit (Cayman Chemical, Ann Arbor, Mich.). The assay contains an antibody with broad specificity for all the prostaglandin families (PGF, PGE, PGD, and thromboxane B-type) synthesized in the COX-1/COX-2 reactions. The synthesized prostaglandin competes with a PG-tagged acetylcholine esterase tracer for binding to the PG antibody. Binding of synthesized PG lowers the colorimetric development of the Ellman's Reagent (computed as %B/B0). The actual amount of synthesized PG was interpolated from a standard curve using known amounts of supplied prostaglandin E2 (PGE2) (PGE2 concentration vs. %B/B0). The data generated were the mean±standard deviation of triplicate wells in the EIA for a single reaction at a given inhibitor concentration. A plot of % of control (i.e., the solvent control without inhibitor) vs. test compound inhibitor concentration for both isoenzymes was used to determine the IC50 's for COX-1 and COX-2 for that test compound, when IC50's were calculated. The % inhibition for COX-1 and COX-2 enzyme activity by the test compounds at the indicated concentrations are given in Table 1."}, "[2]": {"molecular_target": "T1, COX-2 (Homo sapiens, UniProt P35354)", "T1 sequence (P35354 18-604)": "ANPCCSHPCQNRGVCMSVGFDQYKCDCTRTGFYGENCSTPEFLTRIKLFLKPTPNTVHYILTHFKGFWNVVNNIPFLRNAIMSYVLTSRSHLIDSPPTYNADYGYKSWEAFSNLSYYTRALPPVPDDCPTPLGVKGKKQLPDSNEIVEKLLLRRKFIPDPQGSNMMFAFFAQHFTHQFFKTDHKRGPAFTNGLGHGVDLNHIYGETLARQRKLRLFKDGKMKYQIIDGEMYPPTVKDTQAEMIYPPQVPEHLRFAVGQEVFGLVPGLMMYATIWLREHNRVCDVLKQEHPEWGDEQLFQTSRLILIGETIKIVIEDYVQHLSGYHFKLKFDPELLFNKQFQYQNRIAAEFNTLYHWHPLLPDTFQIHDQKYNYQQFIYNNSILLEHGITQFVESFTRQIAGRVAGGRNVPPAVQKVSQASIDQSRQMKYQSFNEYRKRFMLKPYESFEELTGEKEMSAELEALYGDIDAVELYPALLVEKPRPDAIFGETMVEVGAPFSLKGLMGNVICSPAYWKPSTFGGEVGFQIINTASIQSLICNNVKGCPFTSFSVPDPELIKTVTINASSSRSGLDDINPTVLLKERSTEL", "experiment": "COX-2 enzyme activity in human whole blood (LPS induced, thromboxane B2 EIA)", "format": "cell-based", "parameters": "Human blood (≈50 mL) from male or female donors who had not received any aspirin or NSAIDs for 14 days; endogenous in cells; host or cells: human whole blood from donors, LPS-induced", "conditions": "test compound at 10 μM"}},
  "data": [
    {"smiles": "CS(=O)(=O)c1ccc(-c2cc3c(cc2CC2CCCCC2)OCO3)cc1", "note": "[Example 1e, 1-(6-(Cyclohexylmethyl)(2-H-benzo(3,4-d)1,3-dioxolen-5-yl))-4-(methylsulfonyl) benzene]", "values": [
      {"measurement": "COX-1 Inhibition (% at 100 μM)", "setting": "[1]", "value": 0, "unit": "%"},
      {"measurement": "COX-2 Inhibition (% at 10 μM)", "setting": "[2]", "value": 90, "unit": "%"}
    ]},
    {"smiles": "CS(=O)(=O)c1ccc(-c2cc3c(cc2C(=O)c2ccccc2)OCO3)cc1", "note": "[Example 3d, 6-(4-(Methylsulfonyl)phenyl)(2H-benzo(d)1,3-dioxolan-5-yl) phenyl ketone]", "values": [
      {"measurement": "COX-1 Inhibition (% at 100 μM)", "setting": "[1]", "value": 0, "unit": "%"},
      {"measurement": "COX-2 Inhibition (% at 10 μM)", "setting": "[2]", "value": 60, "unit": "%"}
    ]},
    {"smiles": "CS(=O)(=O)c1ccc(-c2cc3c(cc2Cc2cccnc2)OCO3)cc1", "note": "[Example 6c, 4-(Methylsulfonyl)-1-(6-(3-pyridylmethyl)(2H-benzo(3,4-d)1,3-dioxolan-5-yl))benzene]", "values": [
      {"measurement": "COX-1 Inhibition (% at 100 μM)", "setting": "[1]", "value": 30, "unit": "%"},
      {"measurement": "COX-2 Inhibition (% at 10 μM)", "setting": "[2]", "value": 10, "unit": "%"}
    ]},
    {"smiles": "CS(=O)(=O)c1ccc(-c2cc3c(cc2CN2CCCCC2=O)OCO3)cc1", "note": "[Example 9c]", "values": [
      {"measurement": "COX-1 Inhibition (% at 100 μM)", "setting": "[1]", "value": 70, "unit": "%"},
      {"measurement": "COX-2 Inhibition (% at 10 μM)", "setting": "[2]", "value": 30, "unit": "%"}
    ]},
    {"smiles": "CS(=O)(=O)c1ccc(-c2cc3c(cc2C=C2CCCC2)OCO3)cc1", "note": "[Example 10a, 4-(6-(Cyclopentylidenemethyl)(2H-benzo(3,4-d)1,3-dioxolan-5-yl))-1-(methylsulfonyl)benzene]", "values": [
      {"measurement": "COX-1 Inhibition (% at 100 μM)", "setting": "[1]", "value": 30, "unit": "%"},
      {"measurement": "COX-2 Inhibition (% at 10 μM)", "setting": "[2]", "value": 90, "unit": "%"}
    ]},
    {"smiles": "CS(=O)(=O)c1ccc(-c2cc3c(cc2Cc2cc(F)cc(F)c2)OCO3)cc1", "note": "[Example 15c, 5-(1-(3′,5′-Difluorophenyl)methyl)-1,2-methylenedioxy-4-(4-methylsulfonylphenyl)benzene]", "values": [
      {"measurement": "COX-1 Inhibition (% at 100 μM)", "setting": "[1]", "value": 15, "unit": "%"},
      {"measurement": "COX-2 Inhibition (% at 10 μM)", "setting": "[2]", "value": 85, "unit": "%"}
    ]}
  ]
}
